Source: US12428422B2, “Purine derivatives as SIK-3 inhibitors” (RHIZEN PHARMACEUTICALS AG, priority 2020, dated 2025)

System: SK-OV-3 cell lines
Experiment: MTT cell growth inhibition, combination with talzoparib, SK-OV-3
Format: cell-based
Conditions: combined with talzoparib, 72 hrs
Description: Assay 5: Combination of Compound M1 with Standard Agents in Different Cell Lines
Day 0 • The cells were pelleted and counted. • Cells were plated at desired density (100 μl/well) in complete media in a 96-well plate in triplicates. A column for Day “0” reading was also seeded. (18-20 hrs after initial plating and before addition of the inhibitors) • Plates were incubated at 37° C. and 5% CO2. Day 1 • 10 μl of MTT (5 mg/ml) were added to the column designated for Day “0”. It was mixed well and incubated at 37° C. and 5% CO2 for 3.5 h. Cells were pelleted down at 4000 rpm for 10 minutes. • Media was aspirated out and 150 μl of DMSO were added to the cells and mixed by pipetting to dissolve the crystals • The plate was read at A560 nm and A640 nm. Day 2 • A series of dilutions of the inhibitors were initially made in 100% DMSO and further diluted in growth medium. • Cells were treated with either single agent of DMSO, compound M1, talzoparib, and combination of compound M1 and talzoparib (OVCAr-3 and SK-OV-3). […]
The plate was read at A560 nm and A640 nm.
Reference absorbance values were subtracted from test absorbance values. Day 0 values were subtracted from final day absorbance values for determining cell growth. % Cell growth inhibitions were calculated.

CC[C@H](Nc1ncnc2[nH]c(O)nc12)c1oc2ccccc2c(=O)c1-c1cccc(F)c1 [Compound M1, (S)-3-(3-fluorophenyl)-2-(1-((8-hydroxy-9H-purin-6-yl)amino)propyl)-4H-chromen-4-one]
cell growth inhibition in combination: synergistic results
